Key:
[1] = target: human α5β3γ2 receptor (α5-GABAA receptor) (Homo sapiens (Human), UniProt P18507+P31644); experiment: Radioligand (3H-flunitrazepam) competition binding assay, BZD site; conditions: 3H-flunitrazepam 1 nM; HEK293 membranes expressing human α5β3γ2
From the text: α, β and γ subunits are essential for the formation of a complete functional GABAA receptor. In this example, HEK293 cell strains stably expressing human α5-GABAA receptor (comprising α5β3γ2 subunit) and α2-GABAA receptor (comprising α2β3γ2 subunit) were constructed and screened, respectively, by liposome transfection method (Felgner, P. L., et al., Proceedings of the National Academy of Sciences, 1987, 84:7413-7417). The specific subunit protein sequences are as follows: α5 subunit (protein sequence can be found in GenBank accession number: NM_000810.3); α2 subunit (protein sequence can be found in GenBank accession number: NM_000807.4); β3 subunit (protein sequence can be found in GenBank accession number: NM_000814.5); γ2 subunit (protein sequence can be found in GenBank accession number: NM_000816.3).
(§1) The above cell lines were subcultured. Amplification of α5β3γ2-HEK293 and α2β3γ2-HEK293 cells was used to test the affinity of the compounds to benzodiazepine site (BZD) of the GABAA receptor. During the passage of α5β3γ2-HEK293 cells, some of the suspended cells were spread on a glass slide pretreated with Poly-D-Lysine for electrophysiological testing.
Flunitrazepam is a non-specific reagent that binds to the BZD site efficiently. The affinity of the compounds to the BZD sites of the human α5β3γ2 and α2β3γ2 receptors can be determined by competing the compound with ^3H-flunitrazepam (isotope ^3H-labeled flunitrazepam) for binding to these two receptors.
Membrane preparation: HEK293 cells stably expressing human α5β3γ2 receptor or α2β3γ2 receptor were collected, suspended in 50 mM Tris-HCl buffer (pH=7.4), homogenized on ice by a homogenizer for 20 seconds 10 times, and centrifuged at 4° C., 1000 g for 10 min. The supernatant was collected, and the above steps were repeated. The supernatant was centrifuged (33800 g; centrifuge purchased from Thermo, rotor model: A27-8×50) at 4° C. for 60 min, and the precipitate was resuspended in Tris buffer (50 mM Tris-HCl, 10 mM MgCl2, 0.5 mM EDTA, 10% glycerol). The precipitate was the cell membrane. Protein content was determined by BCA (Bicinchoninic Acid) method (BCA kit from Pierce (Annoron)). The cell membrane was prepared into 1 ml aliquot and stored at −80° C.
Radioligand competition binding assay: the assay was carried out in a 200 μL system (96-well plate from Agilent) with 100 μL of cell membrane. The concentration of ^3H-flunitazepam (from PerkinElmer, lot: NET567250 UC) was 1 nM and the concentration of test compound was in the range 1×10^−5-10^−6 M. Flumazenil (from Tocris; lot: 1318) was used as a control. 1 μL of 2 mM flumazenil (final concentration 10 μM) was added to the Low signal control well (Low control, LC) and 1 μL of DMSO (from Sigma aldrich, lot: 472301) was added to the High signal control well (High control, HC). The final target membrane protein concentration was 5 μg/well. All test compound sample stocks were 10 mM DMSO solutions. The working concentration of the samples is to dilute all samples with DMSO to 0.2 mM, and then perform 4-fold continuous gradient dilution for a total of 8 concentration gradients. The 96-well plate was sealed with a plate sealing membrane and then incubated on a shaker at room temperature for 1 hour. Meanwhile, GF/C filter plate was soaked with a plate soaking buffer (0.3% PEI, polyethyleneimine, purchased from Sigma aldrich, model: P314, stored at 4° C.) for at least 0.5 hours. After completion of binding incubation, the cells were collected with a cell collector onto the GF/C filter plate and washed four times with a plate washing buffer (50 mM Tris-HCl, pH 7.4, stored at 4° C.). […]

[2] = target: α5-GABAA receptor (Homo sapiens (Human), UniProt P18507+P31644); experiment: Whole-cell patch clamp electrophysiology, inverse regulation activity in α5β3γ2-HEK293 cells; format: cell-based; conditions: compound 100 nM; GABA 0.05-0.06 μM (about EC7-8); clamped at −60 mV; read-out: Inverse regulation efficiency to α5-GABAA receptor
From the text: α, β and γ subunits are essential for the formation of a complete functional GABAA receptor. […] The specific subunit protein sequences are as follows: α5 subunit (protein sequence can be found in GenBank accession number: NM_000810.3); α2 subunit (protein sequence can be found in GenBank accession number: NM_000807.4); β3 subunit (protein sequence can be found in GenBank accession number: NM_000814.5); γ2 subunit (protein sequence can be found in GenBank accession number: NM_000816.3).
as §1
The inverse regulation activity of the test drugs on α5-GABAA receptor was detected by an electrophysiological method. The specific method was as follows:
Compound concentration setting: the final concentration of the compounds used for compound screening was 100 nM. GABA concentration was 0.05-0.06 μM (about EC7-8). […] The extracellular fluid (ECS) ingredients for electrophysiology were as follows: 150 mM NaCl, 5 mM KCl, 2.5 mM CaCl2, 1 mM MgCl2, 10 mM HEPES and 10 mM glucose (pH 7.4); the electrode internal solution (ICS) formula for electrophysiology was as follows: 140 mM CsCl, 11 mM EGTA, 10 mM HEPES, 2 mM CaCl2, 1 mM MgCl2, 4 mM MgATP, 2 mM TEA (pH 7.3). The above reagents were all purchased from Sigma aldrich. GABA (γ-aminobutyric acid, from sigma aldrich, lot: A5385) powder was prepared into a stock solution with pure water and then diluted in ECS. The compound was first prepared into a 4 mM stock solution with DMSO, and then gradually diluted in corresponding concentrations of GABA-ECS. The solutions were all prepared fresh prior to electrophysiological testing.
Electrophysiological signal acquisition were performed by using EPC 10 amplifier and PatchMaster software (HEKA) or Axon 700 B amplifier and Clampex software (AXON). The recording electrode was made by drawing borosilicate glass (purchased from sutter), and has an electrode resistance of 4˜6 MΩ. Extracellular administration was carried out using ALA-VC-8PG (purchased from ALA, USA) system. A single independently grown cell was selected, and lysis was performed after the glass electrode and the cell forming a good seal, to form a whole cell mode. With the cellular membrane potential clamped at −60 mV, recording was carried out in the Gap-free mode. For the test, extracellular fluid was first applied extracellularly for about 20 seconds. After baseline (Iprebaseline) was stabilized, the extracellular fluid was switched to GABA-ECS. At this time, the current (Igaba) caused by GABA can be detected. At about 20-40 seconds, after the current stabilized, the extracellular fluid was switched to a mixed solution of the compound and GABA-ECS, until the current (Itreatment) caused by both the compound and GABA can be detected. Finally, the solution was switched to the extracellular fluid and the test was terminated after recording for 20-40 seconds.
The experimental results were analyzed using PatchMaster v2x90.1 or PatchMaster v2x90.3 software (EPC 10 amplifier) and Clampex10.6 software (Axon700B amplifier). The current value of each stage was calculated according to the average value of the stabilized current under the corresponding conditions. We defined the control current as Igaba−Iprebaseline, and the current after compound treatment as Itreatment−Iprebaseline. The inverse regulation activity of the compounds is expressed as a percentage and is calculated according to the following formula: Inverse regulation efficiency=[(Itreatment−Igaba)/(Igaba−Iprebaseline)]×100%.

[3] = Stability in simulated gastric fluid (SGF); format: physicochemical; conditions: 37° C., 1000 rpm
Experimental: Simulated gastric fluid (SGF), Manufacturer: Dongguan Chuangfeng Automation Technology Co., Ltd.; Product model: CF-006.
Oscillating constant temperature metal bath, Model: Thermo; Manufacturer: Digital Skaking Drybath.
Temperature: 37° C.; rotating speed: 1000 rpm; sampling time: 0, 4 hours.
Chromatographic column: Welch Xtimate C18 3.0×100 mm, 5 μm. Mobile phase: A: 0.04% trifluoroacetic acid (TFA)/H2O (v/v), B: acetonitrile (ACN). Gradient elution was performed according to the following table, flow rate: 1.0 mL/min; injection volume: 5 μL; column temperature: 35° C.; wavelength: 254 nm.
• (a) preparation of 0.04% TFA/H2O: 400 μL of TFA was measured, placed into 1 L of H2O, and homogenously mixed; • (b) Sample stock solution: about 3 mg of test sample was weighed, and prepared into a stock solution of 10 mmol/L using DMSO; • (c) 50 μL of the sample stock solution was taken, placed into a 5 mL volumetric flask, made up to the scale with the addition of SGF, and homogenously mixed. 400 μL of the solution was taken, four samples in parallel, and shaken at 1000 rpm and 37° C.; • (d) every two samples were taken after 0 and 4 hours respectively, 400 μL of acetonitrile was added, and homogenously mixed, followed by liquid phase injection, and calculation of the change % of the main peak area in the solution after 4 hours relative to 0 hour, two average value reports being taken at each time point.

Row | SMILES | Ki [1] [nM] | inhibition at 0.1 µM [2] [%] | Residual content in simulated gastric juice after 4 hours (compared with 0 hour content) [3]
1 | Cc1onc(-c2ccc(F)cc2)c1COc1ccc(-c2nnc3n2CCN(C)C3=O)cn1 [Compound 2, 3-(6-((3-(4-fluorophenyl)-5-methylisoxazol-4-yl)methoxy)pyridin-3-yl)-7-methyl-6,7-dihydro-[1,2,4]triazolo[4,3-a]pyrazin-8 (5H)-one] | 7.7 | 29 | 46% (4 hours)
2 | Cc1onc(-c2ccc(F)cc2)c1COc1cnc(-c2cnn3c2CCC3)cn1 [Compound 3] | 1.66 | 24 | 102% (4 hours)
3 | Cc1onc(-c2ccc(F)cc2)c1COc1cnc(-c2nnc3n2CCN(C2CCC2)C3=O)cn1 [Compound 4, 7-cyclobutyl-3-(5-((3-(4-fluorophenyl)-5-methylisoxazol-4-yl)methoxy)pyrazin-2-yl)-6,7-dihydro-[1,2,4]triazolo[4,3-a]pyrazin-8(5H)-one] | – | – | 89% (4 hours)
4 | Cc1onc(-c2ccc(F)cc2)c1COc1cnc(-c2cc3n(c(=O)n2)CC24CC(CN32)C4)cn1 [Compound 9, 3-(5-((3-(4-fluorophenyl)-5-methylisoxazol-4-yl)methoxy)pyrazin-2-yl)-7,8-dihydro-1H,6H,9H-7,8a-methanopyrrolo[1′,2′:3.4]imidazo[1,2-c]pyrimidin-1-one] | – | – | 64% (4 hours)
5 | Cc1onc(-c2ccc(F)cc2)c1COc1cnc(-c2nnn3c2COCC3)cn1 [Compound 12, 3-(5-((3-(4-fluorophenyl)-5-methylisoxazol-4-yl)methoxy)pyrazin-2-yl)-6,7-dihydro-4H-[1,2,3]triazolo[5,1-c][1,4]oxazine] | 2.6 | 24 | 93% (4 hours)
6 | Cc1onc(-c2ccc(F)cc2)c1COc1cnc(-c2nnc3n2CCN(C)C3)cn1 [Compound 16] | 6.93 | 15 | 76% (4 hours)
7 | Cc1onc(-c2ccc(F)cc2)c1COc1cnc(N2CCn3c(nnc3C(F)(F)F)C2=O)cn1 [Compound 26, 7-(5-((3-(4-fluorophenyl)-5-methylisoxazol-4-yl)methoxy)pyrazin-2-yl)-3-(trifluoromethyl)-6,7-dihydro-[1,2,4]triazolo[4,3-a]pyrazin-8(5H)-one] | – | – | 80% (4 hours)
8 | Cc1onc(-c2ccc(F)cc2)c1COc1cnc(N2CCn3c(C)nnc3C2)cn1 [Compound 27] | 3.9 | 39 | 63% (4 hours)
9 | Cc1onc(-c2ccc(F)cc2)c1COc1cnc(N2CCn3cccc3C2=O)cn1 [Compound 45, 2-(5-((3-(4-fluorophenyl)-5-methylisoxazol-4-yl)methoxy)pyrazin-2-yl)-3,4-dihydropyrrolo [1,2-a]pyrazin-1(2H)-one] | – | – | 87% (4 hours)
10 | Cc1onc(-c2ccc(F)cc2)c1COc1cnc(-c2cc3n(c(=O)n2)CCN3C)cn1 [Compound 47, 7-(5-((3-(4-fluorophenyl)-5-methylisoxazol-4-yl)methoxy)pyrazin-2-yl)-1-methyl-2,3-dihydroimidazo[1,2-c]pyrimidin-5(1H)-one] | – | 31 | 82% (4 hours)
11 | Cc1onc(-c2ccc(F)cc2)c1COc1ccc(C(=O)NC2CCOCC2)cn1 [WO2009071476, Example 109, reference compound] | – | – | 15% (4 hours)
12 | Cc1onc(-c2ccc(F)cc2)c1COc1ccc(C(=O)N2CCS(=O)(=O)CC2)cn1 [WO2009071476, Example 112, reference compound] | – | – | 2% (4 hours)
13 | Cc1onc(-c2ccc(F)cc2)c1COc1ccc(C(=O)NC2CCOCC2)nn1 [WO2009071477, Example 63, reference compound] | – | – | 0% (4 hours)
